What was measured:
type I collagen = assay: Collagen 1 expression in WJMSC cells, Western blotting; type: cell-based, human; details: for expression of pro-collagen 1: FIG. 3(B), ImageJ fold change vs control, normalized to β-actin
Protocol: (§1) Wharton's Jelly mesenchymal stein cells (WJMSC cells: BCRC H-WJ001) were cultured in α-MEM medium supplemented with 10% to 20% of fetal bovine serum (FBS) and 2 to 8 ng/mL of human basic fibroblast growth factor (bFGF). In the present invention, the WJMSC cells are incubated in α-MEM medium supplemented with 10% FBS and 4 ng/mL bFGF. In addition, the WJMSC cells are incubated in an incubator with a temperature of 37° C. and 5% carbon dioxide (CO2).
(§2) The WJMSC cells were seeded onto culture dishes at a cell density of 5×10^4 cells/cm^2, and incubated in a first medium of 10% FBS α-MEM medium supplemented with and 4 ng/mL bFGF for 24 hours. After 24 hours, the first medium was removed and the WJMSC cells were washed by 1× phosphate-buffered saline (PBS) for two to three times. The WJMSC cells were then incubated in a second medium for 48 hours. The second medium contains α-MEM medium supplemented with bFGF (ProSpece cat: cyt-218-b), proline (Calbiochem, cat: #5370), arginine (Merck, cat: #1011542) or L-ascorbic acid (Sigma, cat: SI-A8960) as experimental design. After 48 hours, the cells were collected for protein extraction, and expression of type I collagen (abbreviated to “collagen 1”) and type III collagen (abbreviated to “collagen 3”) was examined.
(§3) The cell medium was removed and the cells were washed by 1× PBS for two times. The cells were treated with 10 mM EDTA (ethylenediaminetetraacetic acid)-PBS solution or 0.5 M acetic acid and scraped down at 4° C. to obtain a first mixture. The first mixture was placed into a centrifuge tube for lysing cells by a sonication process. The sonication process comprises sonication at […] for 15 seconds by an ultrasonicator for three times, and the time interval between each sonication is 30 seconds. After the sonication process, the first mixture was centrifuged at 4° C. at a speed of 2000 rpm for 30 minutes to obtain a protein crud extract.
(§4) In addition, a cell lysis buffer can be used for cell protein extraction. The extraction method comprises the steps of removing cell medium, washing the cells by 1× PBS twice, adding RIPA cell lysis buffer containing 10 mM EDTA into the cells and shaking for at least 30 minutes, scraping down the cells to obtain a cells-lysis buffer mixture, placing the cells-lysis buffer mixture into a centrifuge tube, and centrifuging at 4° C. at a speed of 12000 rpm for at least 15 minutes to obtain a protein crud extract.
(§5) The protein crud extract was then mixed with 25% saturated […] solution, or mixed with 3M sodium chloride (NaCl) solution for reaction at 4° C. for 24 hours to perform a salting-out process. After 24 hours, the mixed solution was centrifuged at 4° C. at a speed of 3500 g for 30 minutes, and a supernatant was removed to preserve a sediment. The sediment was washed by 1× PBS, and centrifuged at 4° C. at a speed of 3500 g for 30 minutes. The sediment was preserved and dissolved by 0.5 M acetic acid solution to obtain a protein extract. The protein extract was then analyzed by Western blotting assay to detect expression of collagen. All the experiments were repeated at least twice and the results with representative are disclosed.
(§6) FIG. 3(A) is a diagram showing effects of L-ascorbic acid and proline on collagen expression in WJMSC cells. In FIG. 3(A), “AA(5)” represents that WJMSC cells were treated with 5 μM L-ascorbic acid, “Pro(2)” represents that WJMSC cells were treated with 2 mM proline, and “bFGF(4)” represents that the WJMSC cells were treated with 4 ng/mL bFGF. In addition, pro-collagen 1, collagen 1, pro-collage 3 and collagen 3 are marked by arrow signs in FIG. 3(A). […] Referring to FIG. 3(B), the results in FIG. 3(A) are quantified by ImageJ software, the quantification method comprises steps of acquiring a density value of a band of a target in Western blotting and normalizing the density value with a density value of β-actin of the same sample to obtain a normalization value. […]

type III collagen = assay: Collagen 3 expression in WJMSC cells, Western blotting; type: cell-based, human; details: for expression of pro-collagen 3: FIG. 3(B), ImageJ fold change vs control, normalized to β-actin
Protocol: as §1, §2, §3, §4, §5, §6

[1] = test system: Human foreskin fibroblasts (HS68); assay: Wound healing of HS68 cells on collagen-coated culture dish; type: cell-based; details: for Wound size (%): dish coated with 50 μg/mL collagen; for Wound healing percentage (%): relative to wound size at 2 hours
Protocol: Human foreskin fibroblasts (HS68) were seed and attached onto a culture dish at a density of 2×10^4 cells/cm^2 and were incubated in 10% FBS DMEM medium for 24 hours. In control group, an ordinary culture dish without any treatment was used. In collagen group, a collagen-coated culture dish used is prepared by dropping appropriate amount of collagen extracted from WJMSC cells at a concentration of 50 μg/mL on a surface of the culture dish, spreading the collagen evenly, and placing the culture dish into a 37° C. incubator overnight to obtain the collagen-coated culture dish. After the HS68 cells were cultured for 24 hours, the culture medium of HS68 cells was removed and the cells were washed by 1× PBS. A wound was generated on the attached cells, and the wound was observed and photographed at 0, 2, 4, 6, and 20 hours after wound generation by a microscopy. The photographs were analyzed by ImageJ software. The region has no cell on it is considered as a wound size, and a wound healing percentage is calculated by the following formula:
Wound healing percentage (%)=[(wound size at observed time point−wound size at 2 hours after wound generation)/wound size at 2 hours after wound generation]×100%.

[2] = WJMSC cells treated with 5 μM L-ascorbic acid
[3] = WJMSC cells treated with 0.2 mM to 20 mM of arginine (FIG. 1)
[4] = WJMSC cells treated with arginine alone, 0.2 mM (FIG. 2)
[5] = WJMSC cells treated with 0.2 mM proline
[6] = WJMSC cells treated with 2 mM proline, vs control
[7] = WJMSC cells treated with 5 mM to 20 mM proline, same enhancement as with 2 mM
[8] = WJMSC cells treated with 4 ng/mL bFGF

## O=C1O[C@H]([C@@H](O)CO)C(O)=C1O [L-ascorbic acid]
Type I collagen; 5 μM L-ascorbic acid
  expression of pro-collagen 1: enhanced
Type I collagen; [2]
  expression of collagen 1: enhanced
Type III collagen; 5 μM L-ascorbic acid
  expression of pro-collagen 3: enhanced
Type III collagen; [2]
  expression of collagen 3: enhanced

## N=C(N)NCCC[C@H](N)C(=O)O [arginine]
Type I collagen; [3]
  expression of collagen 1: not is enhanced
Type I collagen; [4]
  expression of collagen 1: not enhanced
Type III collagen; [3]
  expression of collagen 3: not is enhanced
Type III collagen; [4]
  expression of collagen 3: not enhanced

## O=C(O)[C@@H]1CCCN1 [proline]
Type I collagen; 2 mM proline
  expression of pro-collagen 1: enhanced
Type I collagen; [5]
  expression of collagen 1: enhanced
Type I collagen; [6]
  expression of collagen 1: enhanced
Type I collagen; [7]
  expression of collagen 1: not achieved
Type III collagen; 2 mM proline
  expression of pro-collagen 3: enhanced
Type III collagen; [5]
  expression of collagen 3: enhanced
Type III collagen; [6]
  expression of collagen 3: enhanced
Type III collagen; [7]
  expression of collagen 3: not achieved

## Collagen
[1]; 2 hr after wound generation
  Wound size (%): 15.2%
[1]; 4 hr after wound generation
  Wound healing percentage (%): 13.0%
  Wound size (%): 13.3%
[1]; 6 hr after wound generation
  Wound healing percentage (%): 38.0%
  Wound size (%): 9.4%
[1]; 6 hr after wound generation, listed as collagen
  Wound healing percentage (%): 38%
[1]; 20 hr after wound generation
  Wound healing percentage (%): 100.0%
  Wound size (%): 0.0%
[1]; 20 hr after wound generation, listed as collagen
  Wound healing percentage (%): 100%
[1]; 20 hr, 10× objective lens, vs control group (FIG. 6)
  cell density: higher
[1]; after 4 hours and 6 hours of wound generation, microscopy, vs control group (FIG. 6)
  cells observed on the wound region: more significant
[1]; after 20 hours of wound generation, microscopy (FIG. 6)
  wound region covered by cells: all covered by cells
[1]; over the observed time points
  wound healing percentage, collagen group compared with control group: better

## bFGF: human basic fibroblast growth factor (bFGF)
Type I collagen; 4 ng/mL bFGF
  expression of pro-collagen 1: enhanced
Type I collagen; [8]
  expression of collagen 1: enhanced
Type III collagen; 4 ng/mL bFGF
  expression of pro-collagen 3: enhanced
Type III collagen; [8]
  expression of collagen 3: enhanced

— patent US20190276798A1, “METHOD FOR PREPARING COLLAGEN HAVING REGENERATION AND REPAIR EFFECTS FROM WHARTON'S JELLY MESENCHYMAL STEM CELLS” (P.E. ASIA BIOMEDICINE CO., LTD., priority 2018, published 2019)
